Values quoted from earlier work in patent publication US9126163B2, “Nanoemulsions and processes for their preparation, and their use as formulations of plant protection agents and/or pesticides and/or cosmetic preparations” (Evonik Degussa GmbH, priority 2008, dated 2015).
Values after ≈ are worked out from the molar mass of the structure shown.

Cc1c(COC(=O)[C@@H]2[C@H](/C=C(\Cl)C(F)(F)F)C2(C)C)cccc1-c1ccccc1 (racemic) [bifenthrin]
solubility in water: < 0.001 mg/L

Fc1ccc([C@]2(Cn3cncn3)O[C@H]2c2ccccc2Cl)cc1 (racemic) [epoxyconazole]
solubility in water: 6.63*10^−4 g/100 ml

CO/C=C(/C(=O)OC)c1ccccc1Oc1cc(Oc2ccccc2C#N)ncn1 [azoxystrobin]
solubility in water: 6 mg/L (≈ 14.9 µM)

COC(=O)Nc1nc2ccccc2[nH]1 [carbendazim]
solubility in water: 29 mg/L (≈ 152 µM)

O=C(Nc1ccc([N+](=O)[O-])cc1Cl)c1cc(Cl)ccc1O [niclosamide]
solubility in water: 100 mg/L (≈ 306 µM)

COc1cc(OC)nc(NC(=O)NS(=O)(=O)c2ncccc2C(=O)N(C)C)n1 [nicosulfuron]
solubility in water: 70 mg/L (≈ 171 µM)

CC1(C)C(C=C(Cl)Cl)C1C(=O)OCc1cccc(Oc2ccccc2)c1 (stereo not shown) [permethrin]
solubility in water: 0.006 mg/L (≈ 0.0153 µM)

CCCCCCCCCCCCCN1CC(C)OC(C)C1 (stereo not shown) [tridemorph]
solubility in water: 1.1 mg/L (≈ 3.7 µM)

abamectin
solubility in water: 0.007 to 0.01 mg/L

mancozeb
solubility in water: 6.2 ppm
